Measurements taken from article PMC3930709, “Selective Activation of hTRPV1 by N-Geranyl Cyclopropylcarboxamide, an Amiloride-Insensitive Salt Taste Enhancer” (PLoS ONE, 2014).

Experiments:
αβγ hENaC = biological target: T1, αβγ hENaC (Homo sapiens, UniProt P37088+P51168+P51170); test: Membrane potential assay (FMP dye) on αβγ hENaC-expressing cells; format: cell-based; conditions: relative to buffer alone, 0.01-10 µM
T1 construct: GFP; host or cells: HEK293T
T1 sequence (P37088 1-669): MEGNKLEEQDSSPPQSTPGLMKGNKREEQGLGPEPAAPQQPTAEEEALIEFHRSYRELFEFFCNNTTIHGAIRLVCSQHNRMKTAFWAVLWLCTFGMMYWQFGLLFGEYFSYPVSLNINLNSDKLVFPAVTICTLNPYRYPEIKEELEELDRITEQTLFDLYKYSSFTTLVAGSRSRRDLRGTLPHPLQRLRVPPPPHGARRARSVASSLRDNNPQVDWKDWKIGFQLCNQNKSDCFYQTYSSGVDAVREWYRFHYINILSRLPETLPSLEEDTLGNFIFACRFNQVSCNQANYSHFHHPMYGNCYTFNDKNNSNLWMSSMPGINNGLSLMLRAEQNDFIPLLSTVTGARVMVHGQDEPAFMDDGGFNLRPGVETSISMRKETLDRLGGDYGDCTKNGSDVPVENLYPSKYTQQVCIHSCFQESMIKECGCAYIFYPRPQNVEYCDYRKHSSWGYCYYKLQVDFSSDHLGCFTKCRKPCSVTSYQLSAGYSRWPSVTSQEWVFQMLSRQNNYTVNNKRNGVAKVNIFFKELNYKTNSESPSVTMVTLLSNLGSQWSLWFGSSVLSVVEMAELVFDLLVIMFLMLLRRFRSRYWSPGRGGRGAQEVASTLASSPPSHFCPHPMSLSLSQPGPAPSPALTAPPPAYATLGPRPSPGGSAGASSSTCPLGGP
T1 sequence (P51168 1-640): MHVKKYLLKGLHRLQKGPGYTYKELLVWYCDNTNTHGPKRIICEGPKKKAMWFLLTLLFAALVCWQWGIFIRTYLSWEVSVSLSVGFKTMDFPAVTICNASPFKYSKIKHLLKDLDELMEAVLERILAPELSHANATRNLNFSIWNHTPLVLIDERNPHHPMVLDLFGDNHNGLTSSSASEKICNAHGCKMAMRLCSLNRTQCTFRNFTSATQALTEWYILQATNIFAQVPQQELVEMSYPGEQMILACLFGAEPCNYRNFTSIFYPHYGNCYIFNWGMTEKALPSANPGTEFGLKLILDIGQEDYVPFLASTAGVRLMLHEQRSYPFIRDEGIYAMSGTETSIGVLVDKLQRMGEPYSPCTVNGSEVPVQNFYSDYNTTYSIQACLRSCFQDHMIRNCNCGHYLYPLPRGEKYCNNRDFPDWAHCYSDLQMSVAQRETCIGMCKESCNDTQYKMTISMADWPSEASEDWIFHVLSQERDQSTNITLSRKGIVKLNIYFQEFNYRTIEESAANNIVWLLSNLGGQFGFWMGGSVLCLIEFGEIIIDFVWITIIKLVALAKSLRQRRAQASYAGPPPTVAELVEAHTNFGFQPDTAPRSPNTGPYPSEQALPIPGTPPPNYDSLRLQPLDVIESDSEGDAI
T1 sequence (P51170 1-649): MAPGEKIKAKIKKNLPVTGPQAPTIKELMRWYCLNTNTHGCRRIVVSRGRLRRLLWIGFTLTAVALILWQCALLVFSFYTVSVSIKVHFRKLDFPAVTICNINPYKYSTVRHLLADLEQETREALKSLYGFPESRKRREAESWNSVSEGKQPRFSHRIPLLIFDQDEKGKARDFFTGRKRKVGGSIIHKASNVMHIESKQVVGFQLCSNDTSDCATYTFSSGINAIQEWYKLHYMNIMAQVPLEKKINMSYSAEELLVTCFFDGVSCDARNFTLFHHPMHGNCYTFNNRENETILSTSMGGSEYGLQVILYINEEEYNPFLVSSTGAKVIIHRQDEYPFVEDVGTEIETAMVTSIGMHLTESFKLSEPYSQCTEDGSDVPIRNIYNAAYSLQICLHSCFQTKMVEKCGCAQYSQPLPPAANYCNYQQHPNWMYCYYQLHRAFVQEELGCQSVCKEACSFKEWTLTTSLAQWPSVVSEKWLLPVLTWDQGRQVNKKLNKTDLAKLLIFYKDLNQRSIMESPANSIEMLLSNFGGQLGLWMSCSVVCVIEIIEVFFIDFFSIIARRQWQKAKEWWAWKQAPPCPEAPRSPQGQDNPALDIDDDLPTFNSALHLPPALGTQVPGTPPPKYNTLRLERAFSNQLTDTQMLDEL
Experimental: The α, β, and γ hENaC subunits were cloned from OriGene (Rockville, MD; GenBank accession number […] for SCNN1A, NM_000336 for SCNN1B and NM_001039 for SCNN1G). α, GFP-tagged β, and γ hENaC were cloned into a CMV promoter-based vector and expressed constitutively. The HEK293T cells were seeded onto a 35 mm dish and transfected with α, β, and γ hENaC expression plasmid using Lipofectamine 2000 (Invitrogen). Then, transfected cells were seeded onto 96-well black-wall plate for 18–26 h prior to their use in an experiment.
hENaC-expressing cells were characterized using FLIPER Membrane Potential (FMP) Assay Kit (Molecular Devices Corporation, Sunnyvale, CA, USA). In this assay, changes in the membrane potential were quantified via fluorescence change caused by FMP dye. The hENaC-expressing cells were washed with assay buffer (containing: 130 mM NaCl, 10 mM glucose, 5 mM KCl, 2 mM CaCl2, 1.2 mM MgCl2, and 10 mM HEPES, pH adjusted to 7.4 with NaOH) and subsequently, FMP blue-dye in assay buffer was loaded into the cells at room temperature for 30 min. After dye treatment, S3969 (0.03−10 µM), an ENaC agonist, S3969+Bz (ENaC antagonist, 0.01 µM), or NGCC (0.01−10 µM) was treated to hENaC-expressing cells. The plate was assayed in a FlexStation III plate reader (Molecular devices Corporation) by excitation at 530 nm and measuring the emission at 560 nm.

[1] = tested on: amiloride-insensitive salt taste pathway; design: method as in PMID 23221408; conditions: WT and TRPV1 KO mice, electrophysiological studies; cited from earlier work

## CC(C)=CCC/C(C)=C/CNC(=O)C1CC1 [NGCC, N-geranylcyclopropylcarboxamide]
αβγ hENaC
  change in membrane potential in αβγ hENaC-expressing cells: no significant changes in membrane potential
[1]
  effect on the amiloride-insensitive salt taste pathway: produced biphasic effects
